The record followed here is ChEMBL document CHEMBL4373743, “Selective apoptosis-inducing activity of synthetic hydrocarbon-stapled SOS1 helix with d-amino acids in H358 cancer cells expressing KRASG12C” (Eur J Med Chem, 2020).

Each structure is given as a SMILES string. Activity calls are given as the source filed them. The rule behind the calls is not given here. Bridge positions count the residues as written; N and C are the ends. Square brackets hold non-standard residues; d marks the D form. Peptide text beside a SMILES is read from it. S5 = C=CCCC[C@](C)(N)C(=O)O

One assay concerns the target GTPase KRas (Homo sapiens, UniProt P01116, G12C). In words: Binding affinity to biotinylated N-terminal His6-tagged recombinant KRAS G12C mutant (unknown origin) by BLI method.
In assay [1] the test system is GTPase KRas (Homo sapiens), P01116 [G12C]. In words: Binding affinity to biotinylated N-terminal His6-tagged recombinant KRAS G12C mutant (unknown origin) assessed as dissociation constant by BLI method.
Chain of GTPase KRas (Homo sapiens), P01116 [G12C] (P01116 whole entry G12C): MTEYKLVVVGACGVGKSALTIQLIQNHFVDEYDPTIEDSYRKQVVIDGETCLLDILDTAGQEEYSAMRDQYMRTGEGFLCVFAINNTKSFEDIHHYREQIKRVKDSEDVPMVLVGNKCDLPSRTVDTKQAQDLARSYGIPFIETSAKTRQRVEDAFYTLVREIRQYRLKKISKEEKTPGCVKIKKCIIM
Another assay relates to NCI-H358. In words: Antiproliferative activity against human NCI-H358 cells harboring KRAS G12C mutant incubated for 24 hrs by MTT assay. Type of assay: functional, cell-based.
Assay [2] has as its system GTPase KRas (Homo sapiens), P01116 [G12C]. In words: Inhibition of mant-GDP bound N-terminal His6-tagged recombinant KRAS G12C mutant (unknown origin) by fluorescence based assay.
For assay [3] the test system is unchanged. In words: Binding affinity to biotinylated N-terminal His6-tagged recombinant KRAS G12C mutant (unknown origin) assessed as association constant by BLI method.
The subject of another assay is A549. In words: Antiproliferative activity against human A549 cells harboring KRAS G12S mutant at 0.37 to 10 uM incubated for 24 hrs by MTT assay. Type of assay: functional, cell-based. A general note: Formazan colour is commonly taken as a measure of viable cells.

A word on the Kd: it is the free concentration of one partner at which half of the binding sites on the other are occupied at equilibrium, for simple one-to-one binding.

Chain of GTPase KRas (P01116 whole entry G12C): as above

With `CC[C@H](C)[C@H](NC(=O)CNC(=O)[C@H](Cc1ccccc1)NC(=O)[C@H](Cc1ccccc1)NC(=O)[C@H](CCCNC(=N)N)NC(=O)[C@H](CCCNC(=N)N)NC(C)=O)C(=O)N[C@@]1(C)CCC/C=C\CCC[C@@](C)(C(=O)N[C@@H](CC(C)C)C(=O)N[C@@H](CCCCN)C(=O)N[C@H](C(=O)N[C@@H](CCC(=O)O)C(=O)N[C@@H](CCC(=O)O)C(=O)NCC(=O)N[C@@H](CC(N)=O)C(=O)O)[C@@H](C)O)NC(=O)[C@H](CC(N)=O)NC(=O)[C@H]([C@@H](C)O)NC(=O)[C@H](CC(C)C)NC1=O`, the dissociation constant Kd on GTPase KRas was 47.8 µM. For the same compound, the Kdiss in assay [1] stood at 1.17 ×10⁻¹ /s. Moreover, the Activity result with NCI-H358 is “Dose-dependent effect”. In assay [2], the inhibition entry was “Dose-dependent effect”. Further, the Ka in assay [3] came to 2.44 ×10³ /M.s. Also, the result in the assay on A549 was inactive.
As to `CC[C@H](C)[C@H](NC(=O)CNC(=O)[C@H](Cc1ccccc1)NC(=O)[C@H](Cc1ccccc1)NC(=O)[C@H](CCCNC(=N)N)NC(=O)[C@H](CCCNC(=N)N)NC(C)=O)C(=O)N[C@@]1(C)CCC/C=C\CCC[C@@](C)(C(=O)N[C@@H](CC(C)C)C(=O)N[C@@H](CCCCN)C(=O)N[C@H](C(=O)N[C@@H](CCC(=O)O)C(=O)N[C@@H](CCC(=O)O)C(=O)NCC(=O)N[C@@H](CC(N)=O)C(=O)O)[C@@H](C)O)NC(=O)[C@H](CC(N)=O)NC(=O)[C@H]([C@@H](C)O)NC(=O)[C@H](CC(C)C)NC(=O)[C@H](CC(=O)O)NC1=O` (Ac-RRFFGI[S5]DLTN[S5]LKTEEGN-OH; staple (Z) 7-12), the Kd at GTPase KRas worked out at 26.1 µM. Also, in assay [1], the Kdiss was 1.73 ×10⁻¹ /s. Also, the Ka in assay [3] worked out at 6.65 ×10³ /M.s.
As for `CC[C@H](C)[C@H](NC(=O)CNC(=O)[C@H](Cc1ccccc1)NC(=O)[C@H](Cc1ccccc1)NC(=O)[C@H](CCCNC(=N)N)NC(=O)[C@H](CCCNC(=N)N)NC(C)=O)C(=O)N[C@@]1(C)CCC/C=C\CCC[C@@](C)(C(=O)N[C@@H](CC(C)C)C(=O)N[C@@H](CCCCN)C(=O)N[C@H](C(=O)N[C@@H](CCC(=O)O)C(=O)N[C@@H](CCC(=O)O)C(=O)NCC(=O)N[C@@H](CC(N)=O)C(=O)O)[C@@H](C)O)NC(=O)[C@H](CC(N)=O)NC(=O)[C@H]([C@@H](C)O)NC(=O)[C@H](CC(=O)O)NC(=O)[C@H](CC(C)C)NC1=O` (Ac-RRFFGI[S5]LDTN[S5]LKTEEGN-OH; staple (Z) 7-12), the Kd at GTPase KRas stood at 3.2 µM. The Kdiss in assay [1] is 1.19 ×10⁻² /s. Besides, the Ka in assay [3] is 3.73 ×10³ /M.s.
The like results for `CC[C@H](C)[C@H](NC(=O)CNC(=O)[C@H](Cc1ccccc1)NC(=O)[C@H](Cc1ccccc1)NC(=O)[C@H](CCCNC(=N)N)NC(=O)[C@H](CCCNC(=N)N)NC(C)=O)C(=O)N[C@@]1(C)CCC/C=C\CCC[C@@](C)(C(=O)N[C@@H](CC(C)C)C(=O)N[C@@H](CCCCN)C(=O)N[C@H](C(=O)N[C@@H](CCC(=O)O)C(=O)N[C@@H](CCC(=O)O)C(=O)NCC(=O)N[C@@H](CC(N)=O)C(=O)O)[C@@H](C)O)NC(=O)[C@H](CC(N)=O)NC(=O)[C@H](CC(=O)O)NC(=O)[C@H]([C@@H](C)O)NC(=O)[C@H](CC(C)C)NC1=O` (Ac-RRFFGI[S5]LTDN[S5]LKTEEGN-OH; staple (Z) 7-12) were, in that order, 8.81 µM, 4.07 ×10⁻² /s and 4.62 ×10³ /M.s.
